Measurements reported in patent publication US12708677B2, “Contrast agents, methods for preparing contrast agents, and methods of imaging” (Georgia State University Research Foundation, Inc., priority 2008, dated 2026).
Like-named read-outs stand apart in the source and are kept apart here.

What was measured:
[1] = literature; cited from earlier work
[2] = literature; cited from earlier work; remark: listed apart in the source
[3] = standard curve, well-characterized chelators; cited from earlier work
[4] = literature; cited from earlier work; remark: listed apart in the source
[5] = cited from earlier work; for r1: based on references
[6] = In vitro r1 and r2 proton relaxivity; type: physicochemical; details: 3.0 T; 50 μM designed agents, 100 μM Gd-DTPA
[7] = test system: CD-1 mice; experiment: Mouse MR imaging; type: in vivo; details: 3T or 9.4T
Method: (§1) Mouse MR Imaging. Care of experimental animals was in accordance with institutional guidelines. CD-1 mice (25-30 g, four mice were imaged) were anesthetized with an isoflurane gas mixture. The anesthetized animal was positioned and stabilized with soft-supporting material (e.g., foam) in the scanner in the coil cradle and was kept warm during the MRI scan. The mice were scanned prior to the administration of any contrast agent (pre-contrast). Approximately 50 μl of Gd-CA1.CD2 (~1.2 mM) or Gd-DTPA (~300 mM) were injected into the animal via the tail vein. MR images were collected at different times (indicated). For T1 weighted imaging at 3T, spin echo sequence with TE/TR=15 ms/500 ms was employed. Rectangular Field of View (FOV) at 100/40 mm, an acquisition matrix of 196^2 and 1.1 mm slice thickness without gap were used. Images were collected from both transverse and coronal sections. The in-plane resolution of images was less than 0.5 mm after they were reconstructed to the matrix of 196^2. For T2 weighted imaging at 9.4T, MR images were recorded using a multi-echo Carr-Purcell-Meiboom-Gill (CPMG) sequence. The data were collected and processed by Dicomworks software. The MR signal intensity in several organs was ascertained by the average intensity in ROIs or points within the organs. Signal intensity for each organ was normalized to that of the leg muscle.
as §1, with “Care” for “Mouse MR Imaging. Care”, “(e.g.” for “(e.g.,”

[8] = In vitro r1 and r2 proton relaxivity; type: physicochemical
Method: Determination of r1 and r2 Relaxivity Values, Relaxation times, T1 and T2, were determined at 1.5, 3, 9.4 Tesla using a Siemens whole-body MR system (1.5, 3T) or a Bruker MRI scanner (9.4T). T1 was determined using inversion recovery and T2 using a multi-echo Carr-Purcell-Meiboom-Gill (CPMG) sequence. The contrast agent samples (200 μl) with different concentrations were placed in eppendorf tubes. The tubes were placed on a tube rack, which was placed in MRI scanners for the measurement of relaxation times r1 and r2 were calculated based on r1(mM^−1 S^−1)=(1/T1s−1/T1c)/C and r2(mM^−1 S^−1)=(1/T2s−1/T2c)/C, where T1s and T2s are relaxation times with contrast agent and T1c and T2c are relaxation times without contrast agent. C is the concentration of contrast agent in mM (the measured Gd^3+ concentrations by ICP-MS). […]

[9] = used for the Gd^3+ buffer system; read-out: Gd^3+-binding affinity; cited from earlier work
[10] = Water coordination number by terbium life time luminescence; type: physicochemical
Method: Measurement of Water Coordination Number by Terbium Life Time Luminescence. The number of water ligands coordinated to Gd^3+-CA1.CD2 complex was determined by measuring Tb^3+ luminescence decay in H2O or D2O. Tb^3+ excited state lifetime was measured using a fluorescence spectrophotometer (Photon Technology International, Inc.) with a 10 mm path length quartz cell at 22° ° C. Following excitation at 265 nm with a XenoFlash (Photon Technology International, Inc.), Tb^3+ emission was monitored at 545 nm in a time series experiment in both H2O and D2O systems. Luminescence decay lifetime was obtained by fitting the acquired data with a mono-exponential decay function. H2O in CA1.CD2 solution was replaced with D2O by lypholization and re-dissolved in D2O at least three times. A standard curve correlating the Δkobs with water number under our experimental conditions was established by using well-characterized chelators, such as EDTA (q=3), DTPA (q=1), NTA (q=5), and Aquo Tb^3+ (q=9) solution with R^2=0.997.^26,27 Water number coordinated to Tb^3+-CA1.CD2 complex was then obtained by fitting the acquired Δkobs value to the standard curve.
The numbers of water ligands coordinated to Gd^3+-CA1.CD2 and variants complex were determined by measuring Tb^3+ luminescence decay in H2O or D2O (Yang et al., 2008). Tb^3+ excited state lifetime was measured using a fluorescence spectrophotometer (Photon Technology International, Inc.) with a 10 mm path length quartz cell at 22° C. Following excitation at 265 nm with a XenoFlash (Photon Technology International, Inc.), Tb^3+ emission was monitored at 545 nm in a time series experiment in both H2O and D2O systems. Luminescence decay lifetime was obtained by fitting the acquired data with a mono-exponential decay function. H2O in CA1.CD2 solution was replaced with D2O by lypholization and re-dissolved in D2O at least three times. A standard curve correlating the Δkobs with water number under our experimental conditions was established by using well-characterized chelators, such as EDTA (q=3). DTPA (q=1), NTA (q=5), and Aquo Tb^3+ (q=9) solation with R^2=0.997.^26, 27 Water number coordinated to Tb^+-CA1.CD2 complex was then obtained by fitting the acquired Δkobs value to the standard curve.

[11] = test system: DU-145; experiment: Uptake and internalization by confocal fluorescent microscope; type: cell-based
Method: (§2) DU-145, PC-3 and H441 cells (8×10^4) were seeded in 4-well chambers (BD) at 37° C. overnight. In the second day, fresh medium was changed. Contrast agents were incubated with cells at different time point at 37° C. Subsequently, the cells were washed with PBS for three times and fixed with 3% formaldehyde for 15 minutes. After cells were rinsed in PBS for three times, 0.2% Triton X-100 was added to permeablize cells for 10 minutes. The cells were washed and four drops of Image-IT Fx signal enhancer (Invitrogen, CA) was applied in each sample to block unspecific binding. After three time washes, CD2 antibody was used as primary antibody. Goat anti-mouse IgG conjugated with Alexa Fluor 488 was used as detection antibody (Invitrogen, CA). The fluorescence image was acquired using 488 nm and UV lasers.

[12] = test system: PC-3; experiment: as above; type: cell-based
Method: as §2

[13] = Serum stability in human serum at 37° C., SDS-PAGE; type: in vitro ADME; details: 24 hours at 37° C., SDS Page
Method: Serum stability. […] The degradation of the protein (disappearance of 12 kDa protein band) was analyzed by SDS-PAGE and visualized by coomassie blue staining. In parallel, the degradation of the protein was also analyzed by immunoblot using antibodies OX54 or PabCD2. The identities of the 12 kDa bands as CA1.CD2 were always verified by immunobloting using antibody PabCD2.
[…] The degradation of the protein (disappearance of 12 kDa protein band) was analyzed by SDS-PAGE and visualized by coomassie blue staining for protein and idiol staining for PEG moiety. In parallel, the degradation of the protein was also analyzed by immunoblot using antibodies OX54 or PabCD2. The identities of CA1.CD2 and pegylated variants were verified by immunoblotting using antibody PabCD2.and idiol staining.

## O=C(O)CN(CCN(CC(=O)O)CC(=O)O)CCN(CC(=O)O)CC(=O)O [DTPA]
[1]
  Log (KGd/KZn): 4.17
[2]
  Log (KGd/KMg): 4.25
[3]
  water number q of standard chelators: 1
[4]
  Log (KGd/KCa): 11.70
  Metal binding constant (Log Ka) Ca^2+: 10.75
[5]; clinically used DTPA, field not stated
  relaxivity: 5 mM⁻¹ s⁻¹

## O=C(O)CN(CCN(CC(=O)O)CC(=O)O)CC(=O)O [EDTA]
[3]
  water number q of standard chelators: 3

## O=C([O-])CN(CCN(CC(=O)[O-])CC(=O)O)CCN(CC(=O)[O-])CC(=O)O.[Gd+3] [Gd-DTPA, reference compound]
[6]
  contrast enhancement in T1 weighted imaging of samples: did not lead to significant enhancement
[7]
  contrast enhancement at the same concentration as Gd-CA1.CD2: failed to exhibit contrast enhancements
[8]; B0 1.5 T
  r1: 5.4 mM⁻¹ s⁻¹
[8]; B0 3 T
  r1: 4.2 mM⁻¹ s⁻¹

## O=C(O)CN(CC(=O)O)CC(=O)O [NTA, nitrilotriacetic acid]
[9]
  Kd: 2.6 pM
[3]
  water number q of standard chelators: 5

## Albumin
[5]; B0 0.25 T
  r1: 11.5 mM⁻¹ s⁻¹

## Gadomer-17
[5]; B0 1.5 T
  r1: 13 mM⁻¹ s⁻¹

## troponin C [reference compound]
[10]
  hydration number (water number in the coordination shell): 1.8

B1: CA1.CD2-521-Bom: Bom/GRP sequence grafted into CA1.CD2 (protein)
chain: RDSGTVWGALGHGIELNIPNFQMTDDIDEVRWERGSTLVAEFKRKMKPFLKSGGSGGGNQWAVGHLMGGSGGGAFEIDANGDLDIKNLTRDDSGTYNVTVYSTNGTRILNKALDLRILE
[11]
  uptake in GRPR positive DU-145 cells: uptake and internalization
[12]
  uptake in GRPR positive PC-3 cells: uptake and internalization

B2: CA1.CD2-P40: CA1.CD2 PEGylated with PEG40 (conjugate)
chain: RDSGTVWGALGHGINLNIPNFQMTDDIDEVRWERGSTLVAEFKRKMKPFLKSGAFEILANGDLKIKNLTRDDSGTYNVTVYSTNGTRILNKALDLRILE
[13]
  stability in human serum: remains intact
